Active and inactive are the calls of the source.
Legend:
Galanin receptor type 3 = Galanin receptor type 3 (Homo sapiens, UniProt O60755); experiment: Fluorescence-based cell-based primary high throughput dose response assay to identify antagonists of the Galanin Receptor 3 (GalR3).; format: functional
cells [1] = format: functional, cell-based; details: HEK-CNG
[2] = inhibition of ADAM10 peptide cleavage – biochemical, FRET peptide substrate, recombinant human ADAM10, selectivity assay for ADAM17 exosite inhibitor project, dose response (AID 743259);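 also: ADAM10 enzyme cleaving a FRET peptide substrate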
[3] = molecular target: Disintegrin and metalloproteinase domain-containing protein 17 (Homo sapiens, UniProt P78536); experiment: exosite inhibitors of ADAM17, dose response, biochemical (AID 743260)
cells [4] = experiment: cells
Major prion protein = Major prion protein (Homo sapiens, UniProt P04156); format: functional, cell-based
Vero = experiment: cells; format: functional; details: Chlorocebus sabaeus
[5] = molecular target: T1, Low molecular weight phosphotyrosine protein phosphatase (Homo sapiens, UniProt P24666); format: functional; details: read-out: IC50_Mean;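 also: Dose-response confirmation assay measuring inhibition of LMPTP enzyme activity by fluorescence intensity read-out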
T1 sequence (P24666 whole entry): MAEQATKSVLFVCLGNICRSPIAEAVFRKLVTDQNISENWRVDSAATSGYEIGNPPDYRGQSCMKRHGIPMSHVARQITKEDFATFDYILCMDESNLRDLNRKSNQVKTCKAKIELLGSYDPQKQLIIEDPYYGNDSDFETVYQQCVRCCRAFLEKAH

[6] = molecular target: T2, Small ubiquitin-related modifier 1 (Homo sapiens, UniProt P63165); experiment: SUMO1 protein-protein binding blockers, potency – biochemical, FRET, dose response (AID 624383); format: functional; details: read-out: IC50_Mean
[7] = molecular target: T2, Small ubiquitin-related modifier 1; experiment: SUMO1 protein interaction blockers, potency – biochemical, fluorescence polarization, uHTS hits, dose response (AID 624382); format: functional; details: read-out: IC50_Mean
[8] = molecular target: T3, Sentrin-specific protease 8 (Homo sapiens, UniProt Q96LD8); format: functional
T3 sequence (Q96LD8 whole entry): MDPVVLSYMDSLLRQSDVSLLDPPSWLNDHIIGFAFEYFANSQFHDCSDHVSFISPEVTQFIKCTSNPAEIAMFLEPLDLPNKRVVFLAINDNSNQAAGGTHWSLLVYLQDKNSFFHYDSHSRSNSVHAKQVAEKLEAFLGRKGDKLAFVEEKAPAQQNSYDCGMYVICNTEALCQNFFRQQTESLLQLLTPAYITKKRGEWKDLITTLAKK

[9] = molecular target: T3, Sentrin-specific protease 8; format: functional; remark: listed apart in the source
[10] = molecular target: T4, Replicative DNA helicase DnaB (Mycobacterium tuberculosis, UniProt P9WMR3); experiment: DnaB intein splicing inhibitors, dose response, biochemical, cell-free fluorescence (AID 449749); format: functional
T4 sequence (P9WMR3 whole entry): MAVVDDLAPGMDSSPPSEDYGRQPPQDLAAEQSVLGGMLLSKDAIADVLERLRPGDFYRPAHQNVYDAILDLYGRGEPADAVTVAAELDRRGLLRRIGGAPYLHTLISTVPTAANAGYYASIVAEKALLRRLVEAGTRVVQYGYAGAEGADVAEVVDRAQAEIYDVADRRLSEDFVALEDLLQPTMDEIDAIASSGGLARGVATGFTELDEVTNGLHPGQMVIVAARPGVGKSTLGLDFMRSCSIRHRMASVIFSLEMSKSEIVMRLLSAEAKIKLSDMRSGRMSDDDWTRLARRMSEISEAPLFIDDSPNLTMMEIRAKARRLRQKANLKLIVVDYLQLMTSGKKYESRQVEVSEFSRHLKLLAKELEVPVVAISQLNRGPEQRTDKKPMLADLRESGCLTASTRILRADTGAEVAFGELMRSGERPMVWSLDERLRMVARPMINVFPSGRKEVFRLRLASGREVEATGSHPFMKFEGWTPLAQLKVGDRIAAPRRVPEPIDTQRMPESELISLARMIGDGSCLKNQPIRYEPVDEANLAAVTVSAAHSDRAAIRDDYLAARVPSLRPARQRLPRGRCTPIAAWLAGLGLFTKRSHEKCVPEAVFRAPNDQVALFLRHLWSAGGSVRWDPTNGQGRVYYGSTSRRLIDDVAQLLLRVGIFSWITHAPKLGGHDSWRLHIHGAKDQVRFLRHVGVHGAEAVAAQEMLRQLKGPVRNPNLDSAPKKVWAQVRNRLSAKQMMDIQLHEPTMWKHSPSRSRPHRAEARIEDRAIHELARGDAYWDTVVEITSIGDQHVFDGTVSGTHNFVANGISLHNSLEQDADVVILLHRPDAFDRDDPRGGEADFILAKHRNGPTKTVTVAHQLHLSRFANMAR

Protein RecA = molecular target: T5, Protein RecA (Mycobacterium tuberculosis, UniProt P9WHJ3); experiment: Fluorescence Cell-Free Homogeneous Dose Retest to Identify Inhibitors of RecA-Intein Splicing Activity. [Related pubchem assays (depositor defined):AID2097, AID2223, AID489010, AID492950]; format: functional
T5 sequence (P9WHJ3 whole entry): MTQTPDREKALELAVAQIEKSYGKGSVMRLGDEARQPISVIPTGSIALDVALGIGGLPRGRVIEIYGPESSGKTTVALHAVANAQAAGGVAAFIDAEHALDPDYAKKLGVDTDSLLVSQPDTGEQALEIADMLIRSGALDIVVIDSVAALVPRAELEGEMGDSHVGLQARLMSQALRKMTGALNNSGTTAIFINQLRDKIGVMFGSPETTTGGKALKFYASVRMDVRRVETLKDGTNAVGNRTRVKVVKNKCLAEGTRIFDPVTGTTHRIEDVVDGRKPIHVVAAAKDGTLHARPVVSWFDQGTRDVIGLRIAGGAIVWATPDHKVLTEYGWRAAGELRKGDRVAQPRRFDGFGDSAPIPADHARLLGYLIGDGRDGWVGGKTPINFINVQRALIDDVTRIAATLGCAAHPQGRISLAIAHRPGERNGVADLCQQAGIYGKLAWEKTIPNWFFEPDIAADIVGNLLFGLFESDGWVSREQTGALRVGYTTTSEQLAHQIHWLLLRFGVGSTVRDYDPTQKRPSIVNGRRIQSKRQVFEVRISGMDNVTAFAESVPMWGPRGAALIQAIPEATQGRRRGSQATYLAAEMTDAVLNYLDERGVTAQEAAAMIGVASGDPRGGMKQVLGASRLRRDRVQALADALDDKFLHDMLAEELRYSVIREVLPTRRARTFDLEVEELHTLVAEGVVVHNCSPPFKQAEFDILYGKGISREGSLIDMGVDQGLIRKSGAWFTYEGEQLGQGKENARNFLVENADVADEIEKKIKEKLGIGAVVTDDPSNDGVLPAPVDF

T2 sequence (P63165 whole entry): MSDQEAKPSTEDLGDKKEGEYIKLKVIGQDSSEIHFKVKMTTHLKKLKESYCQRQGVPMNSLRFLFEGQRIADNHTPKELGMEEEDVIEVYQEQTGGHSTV
Chain of Disintegrin and metalloproteinase domain-containing protein 17 (P78536 whole entry, the tested form may be a part): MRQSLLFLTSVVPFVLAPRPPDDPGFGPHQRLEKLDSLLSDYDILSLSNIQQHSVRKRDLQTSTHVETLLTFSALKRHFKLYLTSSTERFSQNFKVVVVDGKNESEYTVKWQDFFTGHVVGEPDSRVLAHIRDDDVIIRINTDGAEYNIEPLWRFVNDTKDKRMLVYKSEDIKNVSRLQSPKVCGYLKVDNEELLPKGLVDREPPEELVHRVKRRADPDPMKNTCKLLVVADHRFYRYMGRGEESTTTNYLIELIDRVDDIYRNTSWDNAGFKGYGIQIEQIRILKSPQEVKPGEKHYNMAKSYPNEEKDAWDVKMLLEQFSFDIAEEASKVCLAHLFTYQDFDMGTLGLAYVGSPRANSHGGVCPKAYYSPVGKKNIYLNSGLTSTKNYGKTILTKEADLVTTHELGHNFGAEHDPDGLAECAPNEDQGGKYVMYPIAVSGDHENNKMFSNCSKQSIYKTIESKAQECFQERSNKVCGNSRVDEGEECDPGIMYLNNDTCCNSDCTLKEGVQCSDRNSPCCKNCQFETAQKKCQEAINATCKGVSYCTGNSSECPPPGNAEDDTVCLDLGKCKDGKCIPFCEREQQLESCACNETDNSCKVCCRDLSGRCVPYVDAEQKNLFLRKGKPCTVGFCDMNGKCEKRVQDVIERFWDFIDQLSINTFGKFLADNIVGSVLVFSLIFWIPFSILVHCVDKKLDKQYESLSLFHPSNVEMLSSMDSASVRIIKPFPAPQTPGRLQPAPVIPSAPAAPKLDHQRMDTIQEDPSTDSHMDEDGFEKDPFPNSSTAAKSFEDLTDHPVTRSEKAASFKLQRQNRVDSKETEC
Chain of Galanin receptor type 3 (O60755 whole entry): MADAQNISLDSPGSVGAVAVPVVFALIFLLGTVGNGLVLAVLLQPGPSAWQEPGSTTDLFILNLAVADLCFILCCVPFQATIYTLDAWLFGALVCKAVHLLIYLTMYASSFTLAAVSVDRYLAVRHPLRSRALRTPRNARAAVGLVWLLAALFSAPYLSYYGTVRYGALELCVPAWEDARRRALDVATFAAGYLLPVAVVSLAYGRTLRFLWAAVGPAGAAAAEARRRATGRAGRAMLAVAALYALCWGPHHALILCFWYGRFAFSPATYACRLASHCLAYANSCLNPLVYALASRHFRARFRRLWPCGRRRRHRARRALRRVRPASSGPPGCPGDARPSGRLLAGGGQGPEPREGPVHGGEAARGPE

Cc1cc(C(=O)CSc2nc(N)cc(O)n2)c(C)n1-c1ccc(OC(F)F)cc1
IC50 (Galanin receptor type 3): 2.9 µM (active)
EC50 (cells [1]): > 29.9 µM (inactive)

Cc1nn(Cc2ccccc2Cl)c2sc(C(=O)NCc3ccc4c(c3)OCO4)cc12
IC50 [2]: > 69.5 µM (inactive)
IC50 [3]: > 69.5 µM (inactive)

COc1ccc(C(=O)NNC(=O)CSc2nc(C(C)C)nc3ccccc23)cc1
IC50 (cells [4]): > 138 µM (inactive)
IC50 (Major prion protein): 1.98 µM (active)

O=c1[nH]c(=O)n(Cc2ccco2)c2c1C(C(F)(F)F)(C(F)(F)F)NC(CCc1ccccc1)=N2
IC50 (cells [4]): 54.4 µM (inactive)
IC50 (Major prion protein): 8.51 µM (active)

O=C(Nc1ccc2oc(=O)ccc2c1)c1ccc(-c2cccc([N+](=O)[O-])c2)o1
CC50 (Vero): 8.41 µM (active)
IC50 [5]: 25.5 µM (inactive)
IC50 [6]: 2.43 µM (active)
IC50 [7]: > 66.6 µM (inactive)

CCN(CC)c1ccc(NC2CC(=O)N(CCc3ccc(OC)cc3)C2=O)cc1 (stereo not drawn)
IC50 [8]: > 100 µM (inactive)
IC50 [9]: 45.2 µM (active)

CC1=NN(c2ccc(S(=O)(=O)O)cc2C)C(=O)C1
IC50 [8]: 28 µM (active)
AC50 [10]: 3.99 µM (active)
EC50 (Protein RecA): 4.57 µM (active)
IC50 [9]: 21.8 µM (active)

— ChEMBL document CHEMBL1201862, “PubChem BioAssay data set” (2004)
